Drawing on patent publication US10472347B2, “Aminopyrazine compounds with A2A antagonist properties” (Merck Sharp & Dohme Corp., priority 2014, dated 2019), this text covers EC50 and Ki for 28 compounds.

The target in the test is T1, human A2a receptor (Homo sapiens, UniProt P29274).
T1 construct: purchased Perkin-Elmer RBHA2AM400UA; host or cells: HEK293 cells (membranes)
Put plainly: A2a competition binding assay, Scintillation Proximity technology. As to conditions: membranes from HEK293 cells expressing human A2a receptor; for pEC50: 0.5 nM tritiated ligand; for pKi: Ki by Cheng-Prusoff equation. Here is the method:
Binding affinities of compounds of the invention for the human A2a receptor were determined in a competition binding assay using Scintillation Proximity technology. Thus, […] from HEK293 cells expressing the human A2a receptor were incubated with a compound of the invention at concentrations ranging from 3000 nM to 0.15 nM in a reaction mixture containing also 0.5 nM of a tritiated form of 5-amino-7-[2-phenethyl]-2-(furan-2-yl)-7H-pyrazolo[4,3-e][1,2,4]triazolo[1,5-c]pyrimidine (the tritiated compound) and 100 μg of wheat germ agglutin-coated yttrium silicate SPA beads for one hour at room temperature with agitation. The beads were then allowed to settle to the bottom of the wells for 1 hr, after which the membrane-associated radioactivity was determined by scintillation counting in a TopCount microplate reader. Ki values were determined using the Cheng-Prusoff equation.
HEK293 cells expressing the human, rat, dog or monkey adenosine 2a receptor (Purchased from Perkin-Elmer # RBHA2AM400UA).
The Tritiated compound was prepared in-house by MRL Radiochemistry according to published methods.
Wheat germ agglutinin-coated yttrium silicate SPA beads (GE Healthcare #RPNQ0023). Dilute to 25 mg/ml in assay buffer.
Assay Buffer was prepared in house: Dulbecco's calcium and magnesium free phosphate buffered saline+10 mM MgCl2
Adenosine deaminase from calf intestine, 10 mg/2 ml (Roche #10 102 105 001).
A2a antagonist standard (9-chloro-1-(2-furanyl)-[1,2,4]triazolo1,5-c]quinazolin-5-amine from Tocris Bioscience)
Make eight 1:3 serial dilutions in 100% DMSO from a 3 mM compound stock
Transfer 50 nl of compound into a 384-well OptiPlate (Perkin Elmer).
Typically, final concentrations of compound used in the assay ranged from 3000 nM to 0.152 nM.
Dilute a solution of the Tritiated compound to 1.25 nM in assay buffer. This is a 2.5× solution. The final concentration in the assay is 0.5 nM. Calculate the concentration by counting two 5 μl aliquots.
Use 0.25 ug of membrane/well. Dilute membranes to 9.7 μg/ml in assay buffer. Treat with 20 ug/ml adenosine deaminase (ADA) for 15 minutes at room temperature to degrade endogenous adenosine.
Use 100 μg/well wheat germ agglutinin-coated yttrium silicate SPA beads.
Mix ADA-treated membranes and SPA beads together for 30 min prior to assay.
To the Perkin-Elmer Optiplate-384 containing the compound titration add 20 μl of 2.5× solution of the Tritiated compound and 30 μl of the membrane-bead mixture. Incubate for one hour at room temperature with agitation.
Include total binding (assay buffer+1% DMSO) and non-specific binding (CGS15943, 1 μM) wells.
Allow the beads to settle for one hour.
A curve fitting program (i.e., Prism, Activity Base, Chemcart) is used to determine the EC50. The Ki value is calculated using the Cheng-Prusoff equation. Ki=EC50/(1+(radioligand concentration/Kd))
On the technique in general: SPA uses beads or plates that emit light when radiolabelled molecules are held near them.

Molecules are shown by their SMILES. pEC50, pKi: −log10 of the molar value.

T1 sequence (P29274 whole entry): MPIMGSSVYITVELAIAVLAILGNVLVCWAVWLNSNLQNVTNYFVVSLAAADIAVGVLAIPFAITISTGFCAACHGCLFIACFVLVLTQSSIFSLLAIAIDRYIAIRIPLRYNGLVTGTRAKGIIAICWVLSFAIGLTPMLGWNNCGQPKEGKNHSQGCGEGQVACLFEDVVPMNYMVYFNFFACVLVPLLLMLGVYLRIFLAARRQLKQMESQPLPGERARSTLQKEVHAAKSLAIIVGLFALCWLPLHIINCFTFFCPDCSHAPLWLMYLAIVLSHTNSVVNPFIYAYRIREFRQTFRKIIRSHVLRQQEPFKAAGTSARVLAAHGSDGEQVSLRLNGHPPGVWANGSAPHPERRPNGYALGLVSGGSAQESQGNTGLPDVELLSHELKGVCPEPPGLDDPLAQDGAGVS

In general, pEC50 refers to −log10 of the EC50, conventionally taken in molar units. Turning to `Cc1nc(C(=O)N[C@@H]2CCc3cccnc32)c(N)nc1-c1ncco1` (single isomer, unassigned) [Ex-1A], the pEC50 is 8.40.

Regarding `Cc1nc(C(=O)N[C@H]2CCc3cccnc32)c(N)nc1-c1ncco1` (single isomer, unassigned) [Ex-1B], the pEC50 is 8.54.

The pKi is the Ki on a negative log10 scale, so that one unit is a factor of ten. Higher therefore signals a small Ki. The compound `Cc1nc(C(=O)NC(C)c2ccccn2)c(N)nc1-c1ncco1` (single isomer, unassigned) [Ex-82A, 3-amino-6-methyl-5-(1,3-oxazol-2-yl)-N-(1-pyridin-2-ylethyl)pyrazine-2-carboxamide] gave a pKi of 8.61.

`Cc1nc(C(=O)NC(C)c2ccccn2)c(N)nc1-c1ncco1` (single isomer, unassigned) [Ex-82B, 3-amino-6-methyl-5-(1,3-oxazol-2-yl)-N-(1-pyridin-2-ylethyl)pyrazine-2-carboxamide] gave a pKi of 7.36.

With `Cc1nc(C(=O)NC2CCCc3cnccc32)c(N)nc1-c1ncco1` (single isomer, unassigned) [Ex-84A, 3-amino-6-methyl-5-(1,3-oxazol-2-yl)-N-(5,6,7,8-tetrahydroisoquinolin-5-yl)pyrazine-2-carboxamide], the pKi is 6.55.

`Cc1nc(C(=O)NC2CCCc3cnccc32)c(N)nc1-c1ncco1` (single isomer, unassigned) [Ex-84B, 3-amino-6-methyl-5-(1,3-oxazol-2-yl)-N-(5,6,7,8-tetrahydroisoquinolin-5-yl)pyrazine-2-carboxamide]: the pKi is 6.61.

In turn, `CCC(NC(=O)c1nc(C)c(-c2ncco2)nc1N)c1ccccn1` (single isomer, unassigned) [Ex-94A, 3-amino-6-methyl-5-(1,3-oxazol-2-yl)-N-(1-pyridin-2-ylpropyl)pyrazine-2-carboxamide] showed a pKi of 8.06.

`CCC(NC(=O)c1nc(C)c(-c2ncco2)nc1N)c1ccccn1` (single isomer, unassigned) [Ex-94B, 3-amino-6-methyl-5-(1,3-oxazol-2-yl)-N-(1-pyridin-2-ylpropyl)pyrazine-2-carboxamide]: the pKi is 6.86.

Turning to `Cc1nc(C(=O)NC2CCCC(O)CC2)c(N)nc1-c1ncco1` (single isomer, unassigned) [Ex-165A, 3-amino-N-(4-hydroxycycloheptyl)-6-methyl-5-(1,3-oxazol-2-yl)pyrazine-2-carboxamide], the pKi was 7.88.

`Cc1nc(C(=O)NC2CCCC(O)CC2)c(N)nc1-c1ncco1` (single isomer, unassigned) [Ex-165B, 3-amino-N-(4-hydroxycycloheptyl)-6-methyl-5-(1,3-oxazol-2-yl)pyrazine-2-carboxamide]: the pKi is 8.67.

`Cc1nc(C(=O)NC2CCCC(O)CC2)c(N)nc1-c1ncco1` (single isomer, unassigned) [Ex-165C, 3-amino-N-(4-hydroxycycloheptyl)-6-methyl-5-(1,3-oxazol-2-yl)pyrazine-2-carboxamide] showed a pKi of 8.12.

As to `Cc1nc(C(=O)NC2CCCC(O)CC2)c(N)nc1-c1ncco1` (single isomer, unassigned) [Ex-165D, 3-amino-N-(4-hydroxycycloheptyl)-6-methyl-5-(1,3-oxazol-2-yl)pyrazine-2-carboxamide], the pKi was 8.03.

`Cc1nc(C(=O)NC2CCCC2(F)F)c(N)nc1-c1ncco1` (single isomer, unassigned) [Ex-191A, 3-amino-N-(2,2-difluorocyclopentyl)-6-methyl-5-(1,3-oxazol-2-yl)pyrazine-2-carboxamide] gave a pKi of 8.88.

Regarding `Cc1nc(C(=O)NC2CCCC2(F)F)c(N)nc1-c1ncco1` (single isomer, unassigned) [Ex-191B, 3-amino-N-(2,2-difluorocyclopentyl)-6-methyl-5-(1,3-oxazol-2-yl)pyrazine-2-carboxamide], the pKi is 8.59.

Regarding `Cc1nc(C(=O)NC2CCCc3cccnc32)c(N)nc1-c1ncco1` (single isomer, unassigned) [Ex-230A, 3-amino-6-methyl-5-(1,3-oxazol-2-yl)-N-(5,6,7,8-tetrahydroquinolin-8-yl)pyrazine-2-carboxamide], the pKi was 8.43.

With `Cc1nc(C(=O)NC2CCCc3cccnc32)c(N)nc1-c1ncco1` (single isomer, unassigned) [Ex-230B, 3-amino-6-methyl-5-(1,3-oxazol-2-yl)-N-(5,6,7,8-tetrahydroquinolin-8-yl)pyrazine-2-carboxamide], the pKi was 9.12.

Regarding `COc1ccc2c(c1)CCC2NC(=O)c1nc(C)c(-c2ncco2)nc1N` (single isomer, unassigned) [Ex-231A, 3-amino-N-(5-methoxy-2,3-dihydro-1H-inden-1-yl)-6-methyl-5-(1,3-oxazol-2-yl)pyrazine-2-carrboxamide], the pKi was 7.53.

Regarding `COc1ccc2c(c1)CCC2NC(=O)c1nc(C)c(-c2ncco2)nc1N` (single isomer, unassigned) [Ex-231B, 3-amino-N-(5-methoxy-2,3-dihydro-1H-inden-1-yl)-6-methyl-5-(1,3-oxazol-2-yl)pyrazine-2-carboxamide], the pKi was 7.98.

With `Cc1nc(C(=O)NC2CCc3ccccc3C2)c(N)nc1-c1ncco1` (single isomer, unassigned) [Ex-233A, 3-amino-6-methyl-5-(1,3-oxazol-2-yl)-N-(1,2,3,4-tetrahydronaphthalen-2-yl)pyrazine-2-carboxamide], the pKi is 8.94.

On to `Cc1nc(C(=O)NC2CCc3ccccc3C2)c(N)nc1-c1ncco1` (single isomer, unassigned) [Ex-233B, 3-amino-6-methyl-5-(1,3-oxazol-2-yl)-N-(1,2,3,4-tetrahydronaphthalen-2-yl)pyrazine-2-carboxamide], for which the pKi is 9.24.

For `Cc1nc(C(=O)NC2c3ncccc3CC2O)c(N)nc1-c1ncco1` (single isomer, unassigned) [Ex-238A, 3-amino-N-(6-hydroxy-6,7-dihydro-5H-cyclopenta[b]pyridin-7-yl)-6-methyl-5-(1,3-oxazol-2-yl)pyrazine-2-carboxamide], the pKi was 8.26.

The compound `Cc1nc(C(=O)NC2c3ncccc3CC2O)c(N)nc1-c1ncco1` (single isomer, unassigned) [Ex-238B, 3-amino-N-(6-hydroxy-6,7-dihydro-5H-cyclopenta[b]pyridin-7-yl)-6-methyl-5-(1,3-oxazol-2-yl)pyrazine-2-carboxamide] gave a pKi of 9.03.

For `Cc1nc(C(=O)NC2CCc3c(Cl)ccnc32)c(N)nc1-c1ncco1` (single isomer, unassigned) [Ex-244A, 3-amino-N-(4-chloro-6,7-dihydro-5H-cyclopenta[b]pyridin-7-yl)-6-methyl-5-(1,3-oxazol-2-yl)pyrazine-2-carboxamide], the pKi is 9.66.

Take `Cc1nc(C(=O)NC2CCc3c(Cl)ccnc32)c(N)nc1-c1ncco1` (single isomer, unassigned) [Ex-244B, 3-amino-N-(4-chloro-6,7-dihydro-5H-cyclopenta[b]pyridin-7-yl)-6-methyl-5-(1,3-oxazol-2-yl)pyrazine-2-carboxamide]: the pKi was 8.89.

For `Cc1nc(C(=O)NC2CCc3ccc(Cl)nc32)c(N)nc1-c1ncco1` (single isomer, unassigned) [Ex-245A, 3-amino-N-(2-chloro-6,7-dihydro-5H-cyclopenta[b]pyridin-7-yl)-6-methyl-5-(1,3-oxazol-2-yl)pyrazine-2-carboxamide], the pKi was 8.17.

For `Cc1nc(C(=O)NC2CCc3ccc(Cl)nc32)c(N)nc1-c1ncco1` (single isomer, unassigned) [Ex-245B, 3-amino-N-(2-chloro-6,7-dihydro-5H-cyclopenta[b]pyridin-7-yl)-6-methyl-5-(1,3-oxazol-2-yl)pyrazine-2-carboxamide], the pKi was 8.36.

As to `Cc1nc(C(=O)NC2CCOc3ccccc32)c(N)nc1-c1ncco1` (stereo in doubt) [Ex-145, 3-amino-N-[(4R)-3,4-dihydro-2H-chromen-44-yl]-6-methyl-5-(1,3-oxazol-2-yl)pyrazine-2-carboxamide], the pKi is 8.37.

On to `Cc1nc(C(=O)NC2CCOc3ccccc32)c(N)nc1-c1ncco1` (stereo in doubt) [Ex-146, 3-amino-N-[(4S)-3,4-dihydro-2H-chromen-4-yl]-6-methyl-5-(1,3-oxazol-2-yl)pyrazine-2-carboxamide], for which the negative-log Ki (pKi) is 8.25.
